Assay results as given in EP0923292B1, “IMPROVED METHOD FOR SYSTEMIC ADMINISTRATION OF 2,4-DIENOIC ACID-TYPE INSECTICIDES TO TERRESTRIAL MAMMALS” (priority 1996, dated 1998).
Read-outs that look alike come from different tables or passages of the source.

Legend:
[1] = test system: adult cat fleas; assay: Flea ovicidal activity in vitro: artificial feeding system with treated beef blood (Examples 4 and 6); set-up: species or system C. felis; details: Ctenocephalides felis, read-out: Percent Inhibition of Flea Egg Hatching; for inhibition at 0.5 ppm: 0.5 ppm in beef blood; for inhibition at 5 ppm: 5.0 ppm in beef blood; for inhibition at 0.05 ppm: 0.05 ppm in beef blood
Description: For the in vitro tests, an artificial feeding system with cages for adult cat fleas C. felis was used as described by Wade, S.E., et al., J. Med. Ent. 25(3): 186-190 (May 1988). Inside each cage were placed 100 one-week-old, unfed adult C. fells. Each cage included a container for treated blood separated from the fleas by a PARAFILM® membrane, and a compartment containing thin strips of paper to support loosely arranged clean dog hair and to provide a foothold for the fleas as they fed on the blood through the membrane.
The artificial feeding system and cages for adult cat fleas described in Example 3 were used. Beef blood was used for the feeding system, and was prepared by adding 35 mL of a 20% sodium citrate solution per liter of blood to prevent clotting. A stock solution of lufenuron was prepared by adding 50.1 mg of technical lufenuron to 4.951 g of dimethyl sulfoxide (DMSO) to yield a 1.0% solution. A 1,000 ppm solution was then prepared by diluting 1.0 mL of the 1.0% solution in 9.0 mL of DMSO, and a 100 ppm solution was prepared by diluting 1.0 mL of the 1,000 ppm solution in 9.0 mL of DMSO. Dimethyl sulfoxide itself was used as a control. To treat the blood, the various solutions (0.05 mL) were added to the citrated beef blood (100.0 mL) to yield beef blood solutions containing 5.0 ppm, 0.5 ppm, 0.05 ppm, and 0.00 (zero) ppm lufenuron. Each solution was mixed thoroughly, and 10 mL at each concentration were placed in each of five feeders in the artificial feeding system to serve as replicates. Each day fresh blood solutions identical to the originals were placed in the feeders.
Flea eggs were collected from each replicate on days 3, 5 and 7. One hundred (100) healthy appearing […] were counted under a dissecting microscope from each replicate, divided into two subsamples per replicate, and placed in 60 mm x 15 mm plastic petri dishes. The samples were incubated at 78°F and 85% relative humidity for three days, then scored for larval hatch using by visual observation through the dissecting microscope. The data from all replicates at each concentration were combined to yield the mean percent egg hatch, and the percent inhibition of egg hatch was calculated relative to the control.
Retuming to (S)-methoprene, this example presents in vitro flea ovicidal activity using beef blood, for comparison with Example 4. Procedures using beef blood were the same as those indicated in the previous examples.

[2] = test system: C. felis; details: supplier's technical literature; cited from earlier work
[3] = remaining for at least 14 days after the administration of a single dose of 10 mg/kg; supplier's technical literature; cited from earlier work
[4] = test system: C. Felis fleas; assay: Lufenuron systemic flea ovicidal activity upon oral administration to host dogs (Example 5); assay type: in vivo, C. felis (host: dogs); details: oral single doses of 10 mg/kg at Day 0 and Day 28
Procedure: Flea eggs were collected on Days -7, 0, 1, 2, 4, 7, and weekly thereafter through Day 63. Prior to egg collection, the cages in which the dogs were housed and the collection trays were rinsed with isopropyl alcohol, and the water was turned off, feed bowls and resting pads were removed from each cage. Trays covered with a screen made of […] hardware cloth were placed under the cages, and heavy white butcher paper was placed under the hardware cloth. After an interval of 14-16 hours, the paper was swept and the debris and flea eggs thus collected were transferred to a metal pan. The debris was separated from the eggs by sieving, and the eggs were placed in half-pint plastic cartons, then transferred to 10 cm x 10 cm glass plates. Using a dissecting microscope and a fine tipped artist brush, 100 flea eggs were counted from the sweepings of each dog and separated into four replicates of 25 eggs each. The eggs were placed in a 15 mm x 60 mm disposable plastic petri dish and incubated at 79-80°F and 80% relative humidity. Seventy two hours after collection, larvae emergence was determined. Both dead and live larvae were counted to determine the ovicidal effect of the treatment.
Six random bred and purebred, clinically healthy dogs, three male and three female, ranging in weight from 5.5 kg to 17.2 kg each and in age from 5 months to 42 months, and having hair coats ranging from medium to coarse and from 1.0 to 5.0 cm in length, were used. The dogs were divided into two treatment groups of three dogs each. The dogs were all maintained on regular feeding schedules of dog food and water, and each dog in one of the two groups was administered an appropriate number of lufenuron-containing gelatin capsules to achieve a dosage of 10 mg/kg of the body weight of the dog. This dosage is identified in the supplier's technical literature as the minimum effective dosage for C. felis in dogs, and the dosage that will result in a blood concentration level of 0.05 ppm remaining for at least 14 days after the administration of a single dose. Administration was performed at Day 0 and again at Day 28.
On Days -8 (eight days before the lufenuron administration), -4, 3, 10, 17, 24, 31, 38, 45, 52, and 59, approximately 100 unfed adult C. Felis fleas were applied to each dog by standard procedures. Flea eggs were collected and larval emergence (egg hatching) was determined by the procedures of Example 2 on Days -4, 0, 1, 2, 4, 7, 14, 21, 28, 35, 42, 49, and 56.

O=C(NC(=O)c1c(F)cccc1F)Nc1cc(Cl)c(OC(F)(F)C(F)C(F)(F)F)cc1Cl (stereo not drawn) [Lufenuron]
inhibition at 0.5 ppm ([1]; 72 h, day 3, low number of eggs produced in both controls and treated groups): 80.6%
inhibition at 5 ppm ([1]; 72 h, day 3): 100%
inhibition at 0.05 ppm ([1]; 120 h, day 5): 10.8%
inhibition at 0.5 ppm ([1]; 120 h, day 5): 56.5%
inhibition at 5 ppm ([1]; 120 h, day 5): 99.8%
inhibition at 0.05 ppm ([1]; 168 h, day 7): 6.9%
inhibition at 0.5 ppm ([1]; 168 h, day 7): 63.2%
inhibition at 5 ppm ([1]; 168 h, day 7): 100%
minimum effective dosage for C. felis in dogs [2]: 10 mg/kg
blood concentration level [3]: 0.05 ppm
Percent Inhibition of Flea Egg Hatching ([4]; Day 1): 39.9%
Percent Inhibition of Flea Egg Hatching ([4]; Day 2): 70.6%
Percent Inhibition of Flea Egg Hatching ([4]; Day 4): 54.5%
Percent Inhibition of Flea Egg Hatching ([4]; Day 7): 54.1%
Percent Inhibition of Flea Egg Hatching ([4]; Day 14): 52.1%
Percent Inhibition of Flea Egg Hatching ([4]; Day 21): 10.7%
Percent Inhibition of Flea Egg Hatching ([4]; Day 28): 0%
Percent Inhibition of Flea Egg Hatching ([4]; Day 35): 48.6%
Percent Inhibition of Flea Egg Hatching ([4]; Day 42): 0%
Percent Inhibition of Flea Egg Hatching ([4]; Day 49): 72.7%
Percent Inhibition of Flea Egg Hatching ([4]; Day 56): 20.5%
